Experimental findings from PubChem BioAssay AID330 (DTP/NCI, 2004) are described below.

The test has as its system P388 leukemia ip, CD2F1 mice, survival T/C. The test is described as follows: NCI In Vivo Anticancer Drug Screen. Data for tumor model P388 Leukemia (intraperitoneal) in CD2F1 (CDF1) mice. To be noted: endpoint: median survival time, higher = longer survival. Put shortly: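 Mice carrying the transplanted tumor received test compound or vehicle. Survival was recorded in each group, and the value is the treated-group measurement divided by that of the vehicle-treated control group.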

Where [1] appears, read: dose: 50.0 mg/kg/injection, schedule: Q01DX009 (ip), vehicle: saline.
[2] abbreviates: dose: 100.0 mg/kg/injection, schedule: Q01DX009 (ip), vehicle: saline.
Where [3] appears, read: dose: 200.0 mg/kg/injection, schedule: Q01DX009 (ip), vehicle: saline.
Where [4] appears, read: dose: 25.0 mg/kg/injection, schedule: Q01DX009 (ip), vehicle: saline.
Where [5] appears, read: dose: 50.0 mg/kg/injection, schedule: Q01DX009 (ip), vehicle: saline with Tween-80.

SMILES strings stand for the structures. “And” between values parts separate entries of the source, which are not always exact repeats. Equal values may be shown once. Toxic doses and inconclusive results are not listed.

For the compound `CCCCCCCCC(C(=O)N/N=C(\C)c1ccccc1)C(=O)N/N=C(\C)c1ccccc1`, the T/C is 101 % of control under setting [1], 105 % of control under setting [2] and 100 % of control under setting [3].
Consider `Oc1ccc[n+](CCCCCC[n+]2cccc(O)c2)c1`, for which the T/C was 118 % of control (dose: 12.5 mg/kg/injection, schedule: Q01DX009 (ip), vehicle: water); 105 % of control (dose: 25.0 mg/kg/injection, schedule: Q01DX009 (ip), vehicle: water); 110 % of control (dose: 50.0 mg/kg/injection, schedule: Q01DX009 (ip), vehicle: water); 112 % of control (dose: 100.0 mg/kg/injection, schedule: Q01DX009 (ip), vehicle: water); 102 % of control (dose: 200.0 mg/kg/injection, schedule: Q01DX009 (ip), vehicle: water); 102 % of control (dose: 400.0 mg/kg/injection, schedule: Q01DX009 (ip), vehicle: water).
Consider `C/C=C1\CN2CC[C@H]1C[C@H]2[C@H](O)c1ccnc2ccc(NCCO)cc12`, for which the T/C was 94 % of control (dose: 50.0 mg/kg/injection, schedule: Q01DX005 (ip), vehicle: saline); 99 % of control (dose: 100.0 mg/kg/injection, schedule: Q01DX005 (ip), vehicle: saline); 99 % of control (dose: 200.0 mg/kg/injection, schedule: Q01DX005 (ip), vehicle: saline).
As to `Cc1cc(C)n(-c2ccc(Cl)nn2)n1`, the T/C is, setting by setting: under setting [1], 99 % of control; under setting [2], 95 % of control; under setting [3], 100 % of control.
`C=CCSc1nc2ccc(N3C(=O)C=CC3=O)cc2s1`: the T/C is 111 % of control (dose: 6.25 mg/kg/injection, schedule: Q01DX009 (ip), vehicle: Klucel (hydroxypropylcellulose) (HPC)); 104 % of control and 113 % of control (dose: 12.5 mg/kg/injection, schedule: Q01DX009 (ip), vehicle: Klucel (hydroxypropylcellulose) (HPC)); 108 % of control and 113 % of control (dose: 25.0 mg/kg/injection, schedule: Q01DX009 (ip), vehicle: Klucel (hydroxypropylcellulose) (HPC)).
`C[CH2][Sn](=[O])[CH2]C`: under setting [4], the T/C is 154 % of control.
As for `O=C1[N-]C(=S)c2cccn21.O=C1[N-]C(=S)c2cccn21.[Pd+2]`, the T/C is, setting by setting: (dose: 12.5 mg/kg/injection, schedule: Q01DX005 (ip), vehicle: saline with Tween-80) 103 % of control; (dose: 25.0 mg/kg/injection, schedule: Q01DX005 (ip), vehicle: saline with Tween-80) 103 % of control; (dose: 50.0 mg/kg/injection, schedule: Q01DX005 (ip), vehicle: saline with Tween-80) 99 % of control; (dose: 100.0 mg/kg/injection, schedule: Q01DX005 (ip), vehicle: saline with Tween-80) 99 % of control.
As to `CCCCC/C(=C\c1ccccc1)C1OCC(COCC)O1` (stereo unspecified), the T/C is, setting by setting: (dose: 100.0 mg/kg/injection, schedule: Q01DX009 (ip), vehicle: saline + Tween-80 + alcohol) 119 % of control; (dose: 200.0 mg/kg/injection, schedule: Q01DX009 (ip), vehicle: saline + Tween-80 + alcohol) 118 % of control.
Take `CCOC(=O)C(Cc1ccc(N(CCCl)CCCl)cc1)NC(=O)C(Cc1ccccc1)NC=O` (stereo unspecified): the T/C was 172 % of control (dose: 25.0 mg/kg/injection, schedule: Q01DX009 (ip), vehicle: saline with Tween-80); 86 % of control under setting [5]; 166 % of control (dose: 100.0 mg/kg/injection, schedule: Q04DX003 (ip), vehicle: saline with Tween-80); 220 % of control (dose: 200.0 mg/kg/injection, schedule: Q04DX003 (ip), vehicle: saline with Tween-80).
For `O=C(O)C(=O)O.[Ti].[c-]1[c-][c-][cH-][c-]1.[c-]1[c-][c-][cH-][c-]1`, the T/C by setting is: (dose: 3.75 mg/kg/injection, schedule: Q01DX005 (ip), vehicle: Klucel (hydroxypropylcellulose) (HPC)) 94 % of control; (dose: 7.5 mg/kg/injection, schedule: Q01DX005 (ip), vehicle: Klucel (hydroxypropylcellulose) (HPC)) 99 % of control; (dose: 15.0 mg/kg/injection, schedule: Q01DX005 (ip), vehicle: Klucel (hydroxypropylcellulose) (HPC)) 99 % of control; (dose: 30.0 mg/kg/injection, schedule: Q01DX005 (ip), vehicle: Klucel (hydroxypropylcellulose) (HPC)) 100 % of control.
`NC(=O)CCCCO`: the T/C by setting is: (dose: 100.0 mg/kg/injection, schedule: Q04DX003 (ip), vehicle: saline) 102 % of control; (dose: 200.0 mg/kg/injection, schedule: Q04DX003 (ip), vehicle: saline) 102 % of control; (dose: 400.0 mg/kg/injection, schedule: Q04DX003 (ip), vehicle: saline) 109 % of control.
`Cc1nn(C(=O)c2ccncc2)c(C)c1N=Nc1ccc([N+](=O)[O-])cc1`: the T/C (dose: 50.0 mg/kg/injection, schedule: Q01DX009 (ip), vehicle: Klucel (hydroxypropylcellulose) (HPC)) was 92 % of control and the T/C (dose: 100.0 mg/kg/injection, schedule: Q01DX009 (ip), vehicle: Klucel (hydroxypropylcellulose) (HPC)) was 93 % of control.
Turning to `Cc1cc(C)cc(C(O)(CBr)CC(C)(Cl)Cl)c1` (stereo unspecified), the T/C reads like this: (dose: 50.0 mg/kg/injection, schedule: Q01DX009 (ip), vehicle: saline + alcohol) 114 % of control; (dose: 100.0 mg/kg/injection, schedule: Q01DX009 (ip), vehicle: saline + alcohol) 119 % of control; (dose: 200.0 mg/kg/injection, schedule: Q01DX009 (ip), vehicle: saline + alcohol) 120 % of control.
As for `NC(=O)N1CCC2c3ccccc3NC(=S)N21` (stereo unspecified), the T/C is, setting by setting: (dose: 100.0 mg/kg/injection, schedule: Q01DX001 (ip), vehicle: saline with Tween-80) 102 % of control; (dose: 200.0 mg/kg/injection, schedule: Q01DX001 (ip), vehicle: saline with Tween-80) 99 % of control; (dose: 400.0 mg/kg/injection, schedule: Q01DX001 (ip), vehicle: saline with Tween-80) 99 % of control.
Take `COC1OCC(NC(=O)CNC(=O)CCCCCCCCCCCCC(C)C)C(O)C1O` (stereo unspecified): the T/C runs as follows: (dose: 6.25 mg/kg/injection, schedule: Q01DX009 (ip), vehicle: distilled water + Tween-80) 100 % of control; (dose: 12.5 mg/kg/injection, schedule: Q01DX009 (ip), vehicle: distilled water + Tween-80) 93 % of control; (dose: 25.0 mg/kg/injection, schedule: Q01DX009 (ip), vehicle: distilled water + Tween-80) 99 % of control; (dose: 50.0 mg/kg/injection, schedule: Q01DX009 (ip), vehicle: distilled water + Tween-80) 104 % of control; (dose: 100.0 mg/kg/injection, schedule: Q01DX009 (ip), vehicle: distilled water + Tween-80) 104 % of control; (dose: 200.0 mg/kg/injection, schedule: Q01DX009 (ip), vehicle: distilled water + Tween-80) 108 % of control.
`Cc1ccc(S(=O)(=O)CC(=O)c2ccc(Br)cc2)cc1`: the T/C (dose: 100.0 mg/kg/injection, schedule: Q01DX009 (ip), vehicle: saline with Tween-80) was 92 % of control.
As to `N#CC(OC(OC(C#N)c1ccccc1)c1ccccc1)c1ccccc1` (stereo unspecified), the T/C (dose: 60.0 mg/kg/injection, schedule: Q01DX005 (ip), vehicle: saline with Tween-80) is 98 % of control; the T/C (dose: 120.0 mg/kg/injection, schedule: Q01DX005 (ip), vehicle: saline with Tween-80) was 94 % of control; the T/C (dose: 240.0 mg/kg/injection, schedule: Q01DX005 (ip), vehicle: saline with Tween-80) was 89 % of control.
Consider `O=C(OC1(c2nccc3ccccc23)CCN(Cc2ccccc2)CC1)c1ccccc1`, for which the T/C runs as follows: (dose: 12.5 mg/kg/injection, schedule: Q01DX009 (ip), vehicle: saline) 100 % of control; under setting [4], 101 % of control; under setting [5], 93 % of control; under setting [1], 97 % of control.
As to `CC(C)(C)c1ccc(S(=O)[O][Sn]([CH3])([CH3])[O]S(=O)c2ccc(C(C)(C)C)cc2)cc1` (stereo unspecified), the T/C runs as follows: (dose: 50.0 mg/kg/injection, schedule: Q01DX001 (ip), vehicle: Klucel (hydroxypropylcellulose) (HPC)) 110 % of control; (dose: 200.0 mg/kg/injection, schedule: Q01DX001 (ip), vehicle: Klucel (hydroxypropylcellulose) (HPC)) 114 % of control.
`O=C(NCCCC(CCCNC(=O)c1ccccc1)(C(=O)O)C(=O)O)c1ccccc1`: the T/C is 106 % of control (dose: 50.0 mg/kg/injection, schedule: Q01DX005 (ip), vehicle: Klucel (hydroxypropylcellulose) (HPC)); 109 % of control (dose: 100.0 mg/kg/injection, schedule: Q01DX005 (ip), vehicle: Klucel (hydroxypropylcellulose) (HPC)); 104 % of control (dose: 200.0 mg/kg/injection, schedule: Q01DX005 (ip), vehicle: Klucel (hydroxypropylcellulose) (HPC)).
In the case of `CN(C)c1ccc(N=O)cc1`, the T/C runs as follows: (dose: 1.56 mg/kg/injection, schedule: Q01DX009 (ip), vehicle: saline) 110 % of control; (dose: 3.12 mg/kg/injection, schedule: Q01DX009 (ip), vehicle: saline) 110 % of control; (dose: 6.25 mg/kg/injection, schedule: Q01DX009 (ip), vehicle: saline) 94 % of control.
